Assay results taken from ChEMBL document CHEMBL5325400 (Eur J Med Chem, 2023).
Activity calls are given as the source filed them. The rule behind the calls is not given here.

Assays:
MDA-MB-231 = test: Antiproliferative activity against human MDA-MB-231 cells assessed as inhibition of cell growth measured after 48 hrs by MTT assay; format: functional, cell-based; settings: MDA-MB-231, 48 h
B16-F10 [1] = test: Antiproliferative activity against mouse B16-F10 cells assessed as inhibition of cell growth measured after 48 hrs by MTT assay; format: functional, cell-based; settings: B16-F10, 48 h
A549 [2] = test: Antiproliferative activity against human A549 cells assessed as inhibition of cell growth measured after 48 hrs by MTT assay; format: functional, cell-based; settings: A549, 48 h
A549 [3] = test: Inhibition of colony formation in human A549 cells incubated for 6 days by crystal violet staining based analysis; format: functional, cell-based; settings: dose 1-20 nM, time 6.0 day
Tubulin (Sus scrofa) = Tubulin (Sus scrofa) (UniProt P02554+P02550); test: Inhibition of porcine brain tubulin polymerization at 10 uM measured at 1 min interval for 60 mins by fluorescence based analysis
Sequence of Tubulin (Sus scrofa) (P02550 whole entry, looked up): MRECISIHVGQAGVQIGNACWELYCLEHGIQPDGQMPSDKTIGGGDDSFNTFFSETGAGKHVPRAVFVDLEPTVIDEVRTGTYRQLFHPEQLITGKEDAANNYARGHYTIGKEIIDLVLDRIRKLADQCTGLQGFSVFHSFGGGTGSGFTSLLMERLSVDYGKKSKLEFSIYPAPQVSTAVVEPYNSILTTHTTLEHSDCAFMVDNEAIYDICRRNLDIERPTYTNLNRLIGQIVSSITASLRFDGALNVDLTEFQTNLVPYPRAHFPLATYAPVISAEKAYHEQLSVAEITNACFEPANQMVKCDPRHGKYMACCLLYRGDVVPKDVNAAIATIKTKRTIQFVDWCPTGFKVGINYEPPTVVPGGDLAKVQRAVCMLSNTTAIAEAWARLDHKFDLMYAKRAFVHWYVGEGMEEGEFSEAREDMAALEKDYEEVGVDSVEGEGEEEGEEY
Sequence of Tubulin (Sus scrofa) (P02554 whole entry, looked up): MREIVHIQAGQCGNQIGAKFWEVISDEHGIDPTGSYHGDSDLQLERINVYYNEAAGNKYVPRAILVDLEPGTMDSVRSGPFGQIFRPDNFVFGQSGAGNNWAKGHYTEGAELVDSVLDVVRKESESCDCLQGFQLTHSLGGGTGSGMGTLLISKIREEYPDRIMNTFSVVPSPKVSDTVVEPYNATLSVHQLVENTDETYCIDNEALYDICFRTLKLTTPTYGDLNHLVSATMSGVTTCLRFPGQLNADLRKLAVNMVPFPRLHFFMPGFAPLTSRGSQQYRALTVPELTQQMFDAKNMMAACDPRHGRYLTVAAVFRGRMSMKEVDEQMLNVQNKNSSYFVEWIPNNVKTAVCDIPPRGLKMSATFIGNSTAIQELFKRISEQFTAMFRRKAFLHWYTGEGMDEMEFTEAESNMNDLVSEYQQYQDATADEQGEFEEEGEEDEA

Tubulin (Homo sapiens) = Tubulin (Homo sapiens) (UniProt P68371+Q9H4B7+P0DPH7+P68366+Q13509+Q71U36+P04350+Q3ZCM7+P07437+P68363+Q9BQE3+Q6PEY2+Q13885+Q9BVA1+Q9BUF5); test: Inhibition of tubulin polymerization in human A549 cells assessed as microtubule network polymerization at 100 nM measured after 18 hrs by Alexa Fluor 488 and DAPI staining based confocal microscopic analysis; format: cell-based
Tubulin = test: Binding affinity to tubulin (unknown origin) assessed as dissociation constant by SPR analysis; format: protein-complex assay, Homo sapiens
A549 [4] = test: Induction of cell cycle arrest in human A549 cells assessed as accumulation at G2 phase at 10 nM incubated for 24 hrs by PI staining based flow cytometry (Rvb= 12.49%); format: functional
A549 [5] = test: Induction of cell cycle arrest in human A549 cells assessed as accumulation at G1 phase at 10 nM incubated for 24 hrs by PI staining based flow cytometry (Rvb= 65.68%); format: functional
A549 [6] = test: Induction of cell cycle arrest in human A549 cells assessed as accumulation at G1 phase at 20 nM incubated for 24 hrs by PI staining based flow cytometry (Rvb= 65.68%); format: functional
A549 [7] = test: Induction of cell cycle arrest in human A549 cells assessed as accumulation at G1 phase at 40 nM incubated for 24 hrs by PI staining based flow cytometry (Rvb= 65.68%); format: functional
A549 [8] = test: Induction of apoptosis in human A549 cells assessed as viable cells at 40 nM incubated for 24 hrs by annexin V-FITC/propidium iodide staining based flow cytometry analysis (reference value: 96.44%); format: functional; settings: read-out: Activity
A549 [9] = test: Induction of apoptosis in human A549 cells assessed as late apoptotic cells at 20 nM incubated for 24 hrs by annexin V-FITC/propidium iodide staining based flow cytometry analysis (reference value: 0.37%); format: functional
A549 [10] = test: Induction of apoptosis in human A549 cells assessed as necrotic cells at 40 nM incubated for 24 hrs by annexin V-FITC/propidium iodide staining based flow cytometry analysis (reference value: 2.36%); format: functional
A549 [11] = test: Induction of apoptosis in human A549 cells assessed as downregulation of Bcl-2 protein at 10 to 40 nM measured after 48 hrs by Western blot analysis; format: functional, cell-based; settings: dose 10-40 nM
A549 [12] = test: Induction of apoptosis in human A549 cells assessed as upregulation of Bad protein at 10 to 40 nM measured after 48 hrs by Western blot analysis; format: functional, cell-based; settings: dose 10-40 nM
A549 [13] = test: Antimigratory activity against human A549 cells assessed as inhibition of cell migration at 5 nM and incubated for 12 hrs by scratch wound healing assay (reference value: 29.5 +/- 1.34%); format: functional; design: scale not given: the % may be the effect or the level left
A549 [14] = test: Antimigratory activity against human A549 cells assessed as inhibition of cell migration at 10 nM and incubated for 12 hrs by scratch wound healing assay (reference value: 29.5 +/- 1.34%); format: functional; design: scale not given: the % may be the effect or the level left
A549 [15] = test: Antimigratory activity against human A549 cells assessed as inhibition of cell migration at 20 nM and incubated for 12 hrs by scratch wound healing assay (reference value: 29.5 +/- 1.34%); format: functional; design: scale not given: the % may be the effect or the level left
B16-F10 [16] = test: Antimigratory activity against mouse B16-F10 cells assessed as inhibition of cell migration at 20 nM and incubated for 12 hrs by scratch wound healing assay (reference value: 81.9 +/- 0.64%); format: functional; design: scale not given: the % may be the effect or the level left
B16-F10 [17] = test: Antimigratory activity against mouse B16-F10 cells assessed as inhibition of cell migration at 40 nM and incubated for 12 hrs by scratch wound healing assay (reference value: 81.9 +/- 0.64%); format: functional; design: scale not given: the % may be the effect or the level left
A549 [18] = test: Inhibition of cell migration in human A549 cells assessed as total number of cells migrated at 40 nM incubated for 12 hrs by crystal violet staining based transwell assay (reference value: 724 +/- 16); format: functional
B16-F10 [19] = test: Inhibition of cell migration in mouse B16-F10 cells assessed as total number of cells migrated at 40 nM incubated for 12 hrs by crystal violet staining based transwell assay (reference value: 692 +/- 11); format: functional
[20] = Half life in Sprague-Dawley rat at 1 mg/kg, iv by LC-MS analysis; format: ADME, organism-based; settings: in vivo
[21] = Cmax in Sprague-Dawley rat at 1 mg/kg, iv by LC-MS analysis; format: ADME, organism-based; design: dose 1 mg/kg, route iv; settings: in vivo
[22] = Toxicity in BALB/c mouse assessed as adverse effect at 10 mg/kg, ip; format: organism-based; settings: in vivo
A549 [23] = test: Antitumor activity against human A549 cells xenografted in BALB/c mouse assessed as tumor growth inhibition at 10 mg/kg, ip administered every other day for 25 days; format: functional; settings: A549, 600 h, time 25 day, read-out: TGI
A549 [24] = test: Antitumor activity against human A549 cells xenografted in BALB/c mouse assessed as tumor weight at 10 mg/kg, ip administered every other day for 25 days; format: functional, organism-based; settings: time 25.0 day
A549 [25] = test: Antitumor activity against human A549 cells xenografted in BALB/c mouse assessed as tumor weight at 5 mg/kg, ip administered every other day for 25 days; format: functional, organism-based; settings: time 25.0 day
[26] = Toxicity in BALB/c mouse xenografted with human A549 cells assessed as change in body weight at 5 mg/kg, ip administered every other day for 25 days; format: organism-based; settings: in vivo, 600 h, time 25 day
A549 [27] = test: Antitumor activity against human A549 cells xenografted in ip dosed BALB/c mouse assessed as decrease in Ki-67 expression in tumor administered every other day for 25 days by immunohistochemistry analysis; format: functional, organism-based; settings: dose 10.0 mg/kg, time 25.0 day
A549 [28] = test: Antitumor activity against human A549 cells xenografted in BALB/c mouse assessed as upregulation of cleaved PARP expression in tumor at 5 mg/kg, ip administered every other day for 25 days by Western blotting analysis; format: functional, organism-based; settings: time 25.0 day
[29] = Toxicity in BALB/c nude mouse xenografted with human A549 cells assessed as pathological changes in spleen at 5 to 10 mg/kg, ip administered every other day for 25 days by hematoxylin and eosin staining based microscopic analysis; format: organism-based; settings: in vivo, 600 h, dose 5-10 mg/kg, time 25 day
A2780 = test: cells; settings: Homo sapiens, A2780, 48 h
Description: Antiproliferative activity against human A2780 cells assessed as inhibition of cell growth incubated for 48 hrs by MTT assay

A549 [30] = test: Residual cell migration in human A549 cells at 5 nM incubated for 12 hrs by crystal violet staining based transwell assay; settings: A549, 12 h

SMILES: COc1cccc(Nc2cc(Nc3cccc(NC(=O)C4CC4)c3)ncn2)c1
- IC50 (MDA-MB-231): 4.4 nM
- IC50 (B16-F10 [1]): 3.3 nM
- IC50 (A549 [2]): 1.1 nM
- inhibition (A549 [3]): Dose-Dependent Effect
- inhibition (Tubulin (Sus scrofa)): Active
- inhibition (Tubulin (Homo sapiens)): Active
- Kd (Tubulin): 43.2 µM
- Activity (A549 [4]): 23.37%
- Activity (A549 [5]): 58.47%
- Activity (A549 [6]): 48%
- Activity (A549 [7]): 21.8%
- viability at 0.04 µM (A549 [8]): 63.6%
- Activity (A549 [9]): 16.31%
- Activity (A549 [10]): 5.78%
- Activity (A549 [11]): Active
- Activity (A549 [12]): Active
- Activity (A549 [13]): 23.2%
- Activity (A549 [14]): 15.8%
- Activity (A549 [15]): 9.8%
- Activity (B16-F10 [16]): 39.7%
- Activity (B16-F10 [17]): 29.1%
- Activity (A549 [18]): 157
- Activity (B16-F10 [19]): 221
- t1/2 [20]: 13.2 min
- Cmax [21]: 87.86 ng/mL
- Activity [22]: Non-Toxic
- inhibition in vivo at 10 mg/kg (A549 [23]): 65.4%
- Activity (A549 [24]): Active
- Activity (A549 [25]): Active
- Activity [26]: Non-Toxic
- Activity (A549 [27]): Dose-Dependent Effect
- Activity (A549 [28]): Active
- Activity [29]: Non-Toxic
- IC50 (A2780): 16 nM
- level, % of control at 0.005 µM (A549 [30]): 91.5%
